# Assay results published in PubChem BioAssay (NCI).
#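 These data come from cells grown in 96-well plates and exposed to compound for 48 hours at five concentrations. Here, GI50 denotes the concentration required for 50% inhibition of growth. TGI: total growth inhibition.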
# Experiments:
# Assay in all cases: inhibition of tumour cell growth, NCI panel, 48 h
# 786-0 renal = system: 786-0 renal
# HOP-62 NSCLC = system: HOP-62 NSCLC
# MCF7 breast = system: MCF7 breast
# OVCAR-5 ovarian = system: OVCAR-5 ovarian
# RXF 393 renal = system: RXF 393 renal
# SK-MEL-28 melanoma = system: SK-MEL-28 melanoma
# SNB-19 CNS = system: SNB-19 CNS
# UACC-257 melanoma = system: UACC-257 melanoma
SMILES,GI50 (786-0 renal) [µM],TGI (786-0 renal) [µM],GI50 (HOP-62 NSCLC) [µM],TGI (HOP-62 NSCLC) [µM],GI50 (MCF7 breast) [µM],TGI (MCF7 breast) [µM],GI50 (OVCAR-5 ovarian) [µM],TGI (OVCAR-5 ovarian) [µM],GI50 (RXF 393 renal) [µM],TGI (RXF 393 renal) [µM],GI50 (SK-MEL-28 melanoma) [µM],TGI (SK-MEL-28 melanoma) [µM],GI50 (SNB-19 CNS) [µM],TGI (SNB-19 CNS) [µM],GI50 (UACC-257 melanoma) [µM],TGI (UACC-257 melanoma) [µM]
Cc1cc2c(C(C)C)c(O)c(O)c(/C=N/O)c2c(O)c1-c1c(C)cc2c(C(C)C)c(O)c(O)c(/C=N/O)c2c1O,3.22,13.3,1.95,11.4,2.52,12.2,3.08,12.9,1.49,6.36,1.84,6.8,3.32,23.5,2.97,8.76
O=C(NNC1=NS(=O)(=O)c2ccccc2N1c1ccccc1)c1cnccn1,> 100,> 100,> 100,> 100,> 100,> 100,–,–,> 100,> 100,> 100,> 100,> 100,> 100,> 100,> 100
COc1ccc(-c2cc(-c3ccc(Cl)cc3)nc(SCCCC(=O)NO)n2)cc1OC,0.591,2.68,1.01,6.87,1.63,5.39,0.931,4.36,0.417,1.66,1.2,2.71,1.57,4.43,1.81,4.89
CCN(CC)CCOc1ccc(/C(=C(\C)Cc2ccc(OC)cc2)c2ccc(O)cc2)cc1,1.59,3,1.89,3.81,0.145,2.3,2.36,6.79,1.51,2.91,1.79,3.33,2.08,4.77,1.89,3.81
CCOC(=O)C(Cc1ccccc1)n1c(O)c(/C=N/c2ncc(Cc3ccc(Cl)cc3Cl)s2)sc1=S (stereo not drawn),3.15,> 100,2.69,8.12,2.36,> 100,4.2,> 100,2.56,6.7,2.61,26.4,5.05,> 100,2.72,8.57
CC1(C)CCC2(C(=O)O)C(O)CC3(C)C(=CCC4C5(C)CCC(OC6OCC(O)C(O)C6OC6OCC(O)C(O)C6OC6OCC(O)C(OC7OC(CO)C(O)C(O)C7O)C6O)C(C)(C)C5CCC43C)C2C1 (stereo not drawn),–,> 100,–,> 100,–,> 100,–,> 100,–,59.1,–,> 100,–,43.6,–,> 100
Cn1cc(Nc2nccc(-c3ccc4c(c3)CN(C3COC3)CC[C@H]4NC(=O)c3cn(C(C)(C)C)nn3)n2)cn1,50.5,> 100,> 100,> 100,41.4,> 100,45.2,> 100,26.6,> 100,46.9,> 100,> 100,> 100,> 100,> 100
C/C=C(/C)C(=O)OC1C=C(CO)C(=O)C(OC(=O)C2(C)OC2C)C1C(C)C (stereo not drawn),1.79,3.24,1.96,4.3,1.19,4.14,1.93,3.74,1.77,3.27,1.78,3.33,2.33,5.87,1.37,2.75
C=C1CC[C@@](C)(c2cc(Br)c(C)cc2OC(C)=O)[C@H]1C,12.6,25.4,17.5,31.8,12.8,28,15.1,28.7,14.8,32.5,11.7,24,15.5,31.2,16.1,30.2
Oc1ccc(/C=N/NC(=S)Nc2ccccc2)nc1,1.84,12.4,0.766,7.29,2.73,> 100,7.09,> 100,0.667,4.91,3.14,> 100,1.93,> 100,2.18,6.84
COC(=O)C1C(=O)C(C(=O)OC)C2CCC1N2C (stereo not drawn),–,> 100,–,> 100,–,> 100,–,> 100,–,> 100,–,> 100,–,> 100,–,> 100
